Reference: patent US4543350A, “Carcinostatic agent” (Sanyo Machine Works, Ltd., priority 1982, dated 1985)
Where “and” joins values, the source holds several entries; their conditions need not be identical. Identical values can stand only once.

Tests used:
Water solubility = assay type: physicochemical
[1] = system: Colon 26 (Balb/C Colon cancer); assay: Colon 26 transplanted subcutaneously to Balb/C mice: tumor weight and survival rate; assay type: in vivo; settings: Colon 26 s.c. in Balb/C mice; Eisenin i.p. 5 mg per animal every other day three times
Excerpt: (§1) The animals used as experimental materials were Balb/C mice and nude mice, and the tumors used were Colon (Balb/C Colon cancer) and Sarcoma 180.
a. 1,000,000 Cells of Colon 26 were transplanted subcutaneously to Balb/C mice.

[2] = Effective dosage estimated from the various test results; assay type: in vivo; settings: average body weight of Balb/C mice taken as 20 g
[3] = system: BW 5174 (thymoma of AKR mouse); assay: Cytotoxicity test (51Cr release) of spleen and intraperitoneal cells of Eisenin-administered mice; assay type: cell-based
Excerpt: Further, the target cell employed was BW 5174 (thymoma of AKR mouse). The spleen cells and the intraperitoneal cells were respectively divided into the adherent cells and the non-adherent cells, and cytotoxicity was examined in each case.
(1) Percent Cytotoxicity (%) in Table 3 is based on the following
(2) Measurement is made by ^51 Cr release assay. (3) Acute Toxicit

Colon 26 = assay: Sensitivity test: inclusion of tritium thymidine, uridine and leucine into cultured Colon 26; assay type: cell-based; settings: for Average Counts per Minute, Leucine / Counts per Minute in the Case of Leucine: leucine (protein); for Average Counts per Minute, Leucine / Counts per Minute in the Case of Leucine / Average Counts per Minute, Tritium Thymidine / Counts per Minute in the Case of Tritium Thymidine / Average Counts per Minute, Uridine / Counts per Minute in the Case of Uridine: 3 days; for Counts per Minute in the Case of Leucine / Counts per Minute in the Case of Tritium Thymidine / Counts per Minute in the Case of Uridine: single counts; for Average Counts per Minute, Tritium Thymidine / Counts per Minute in the Case of Tritium Thymidine: tritium thymidine (DNA); for Average Counts per Minute, Uridine / Counts per Minute in the Case of Uridine: uridine (RNA)
Experimental: (1) Inhibition Index (I.I.) is calculated from the following equation, an
where I.I. exceeds 75%, it is judged effective.
- (2) Measurement is made on a scintillation counter.

Sarcoma 180 = Sarcoma 180 transplanted subcutaneously to Balb/C mice: tumor weight; assay type: in vivo; settings: Sarcoma 180 s.c. in Balb/C mice; Eisenin i.p. and orally 5 mg per animal every other day three times
Excerpt: as §1

Balb/C mice = assay: Acute toxicity test; assay type: in vivo; settings: for No. of Death: 9 Balb/C mice

Substance: L-Pyroglu-L-Gln-L-Ala [Eisenin]
- solubility in water (Water solubility): water soluble
- anti-tumor effect (weight of the tumor, survival rate; FIG. 1, FIG. 2) [1]: an anti-tumor effect of Eisenin is recognized
- effective dosage as estimated from the test results [2]: about 15 mg per 20 g
- difference in cytotoxicity versus control group, intraperitoneal cells [3]: a significant difference
- direct effect on tumor cells (sensitivity test; I.I. above 75% is judged effective) (Colon 26; Colon 26 culture, all concentrations and labels): no direct effect of Eisenin on tumor cells
- Average Counts per Minute, Leucine (Colon 26; Eisenin 0.0001 mg/ml): 12232 CPM
- Counts per Minute in the Case of Leucine (Colon 26; Eisenin 0.0001 mg/ml): 12952 CPM and 11936 CPM and 11808 CPM and 10952 CPM
- Average Counts per Minute, Leucine (Colon 26; Eisenin 0.001 mg/ml): 13743 CPM
- Counts per Minute in the Case of Leucine (Colon 26; Eisenin 0.001 mg/ml): 13620 CPM and 14230 CPM and 13379 CPM and 11355 CPM
- Average Counts per Minute, Leucine (Colon 26; Eisenin 0.01 mg/ml): 11478 CPM
- Counts per Minute in the Case of Leucine (Colon 26; Eisenin 0.01 mg/ml): 12285 CPM and 11020 CPM and 12097 CPM and 11318 CPM
- Average Counts per Minute, Leucine (Colon 26; Eisenin 0.1 mg/ml): 11318 CPM
- Counts per Minute in the Case of Leucine (Colon 26; Eisenin 0.1 mg/ml): 13311 CPM and 12566 CPM and 8076 CPM and 7076 CPM
- Average Counts per Minute, Leucine (Colon 26; Eisenin 1.0 mg/ml): 6521 CPM
- Counts per Minute in the Case of Leucine (Colon 26; Eisenin 1.0 mg/ml): 6826 CPM and 6150 CPM and 6587 CPM
- Average Counts per Minute, Tritium Thymidine (Colon 26; Eisenin 0.0001 mg/ml): 229878 CPM
- Counts per Minute in the Case of Tritium Thymidine (Colon 26; Eisenin 0.0001 mg/ml): 231236 CPM and 219336 CPM and 224786 CPM and 233612 CPM
- Average Counts per Minute, Tritium Thymidine (Colon 26; Eisenin 0.001 mg/ml): 218332 CPM
- Counts per Minute in the Case of Tritium Thymidine (Colon 26; Eisenin 0.001 mg/ml): 220010 CPM and 213816 CPM and 221170 CPM and 213017 CPM
- Average Counts per Minute, Tritium Thymidine (Colon 26; Eisenin 0.01 mg/ml): 238823 CPM
- Counts per Minute in the Case of Tritium Thymidine (Colon 26; Eisenin 0.01 mg/ml): 207474 CPM and 229569 CPM and 240628 CPM and 246273 CPM
- Average Counts per Minute, Tritium Thymidine (Colon 26; Eisenin 0.1 mg/ml): 198381 CPM
- Counts per Minute in the Case of Tritium Thymidine (Colon 26; Eisenin 0.1 mg/ml): 190120 CPM and 203872 CPM and 201151 CPM and 223845 CPM
- Average Counts per Minute, Tritium Thymidine (Colon 26; Eisenin 1.0 mg/ml): 170297 CPM
- Counts per Minute in the Case of Tritium Thymidine (Colon 26; Eisenin 1.0 mg/ml): 140430 CPM and 171170 CPM and 163554 CPM and 176167 CPM
- Average Counts per Minute, Uridine (Colon 26; Eisenin 0.0001 mg/ml): 30793 CPM
- Counts per Minute in the Case of Uridine (Colon 26; Eisenin 0.0001 mg/ml): 32836 CPM and 29585 CPM and 24135 CPM and 29958 CPM
- Average Counts per Minute, Uridine (Colon 26; Eisenin 0.001 mg/ml): 31169 CPM
- Counts per Minute in the Case of Uridine (Colon 26; Eisenin 0.001 mg/ml): 39415 CPM and 31675 CPM and 28671 CPM and 33161 CPM
- Average Counts per Minute, Uridine (Colon 26; Eisenin 0.01 mg/ml): 33039 CPM
- Counts per Minute in the Case of Uridine (Colon 26; Eisenin 0.01 mg/ml): 37043 CPM and 33211 CPM and 31498 CPM and 34408 CPM
- Average Counts per Minute, Uridine (Colon 26; Eisenin 0.1 mg/ml): 25426 CPM
- Counts per Minute in the Case of Uridine (Colon 26; Eisenin 0.1 mg/ml): 32774 CPM and 25271 CPM and 24222 CPM and 26786 CPM
- Average Counts per Minute, Uridine (Colon 26; Eisenin 1.0 mg/ml): 21107 CPM
- Counts per Minute in the Case of Uridine (Colon 26; Eisenin 1.0 mg/ml): 27088 CPM and 20903 CPM and 19954 CPM and 22463 CPM
- anti-tumor effect (weight of the tumor; FIG. 5) (Sarcoma 180): a similar anti-tumor effect is recognized
- No. of Death (Balb/C mice; Eisenin 3 g/kg intraperitoneally): 1/9
- No. of Death (Balb/C mice; Eisenin 6 g/kg intraperitoneally): 7/9
- LD50 (Balb/C mice; intraperitoneal, Balb/C mice): ~5000 mg/kg
